Measured values reported in patent US11510945B2, “Compositions and methods for enhancing ion transporter activity and uses thereof” (THE ROYAL INSTITUTION FOR THE ADVANCEMENT OF …, priority 2018, dated 2022).

Experiments:
GFP-wt-CFTR = test: Image Correlation Spectroscopy of GFP-wt-CFTR aggregation at the plasma membrane; format: cell-based, human; settings: for CFTR clustering / platforms (degree of aggregation) at the plasma membrane: primary human bronchial epithelial cells, fenretinide 1.25 μM 24 h pretreatment, Thaps 2 μM 10-20 min
Protocol: FIGS. 3A-E are confocal images of GFP-wt-CFTR expressed at the plasma membrane of pHBE cells under control conditions (Ctr) (FIG. 3A); after 10-20 min treatment with 2 μM Thapsigargin (FIG. 3B); after treatment with 1.25 μM Fenretinide (FIG. 3C); after treatment with 1.25 μM Fenretinide and Thapsigargin (same conditions as above) (FIG. 3D); or after treatment with 1.25 μM Fenretinide+Thapsigargin (same conditions as above)+Amitriptyline (13 μM for 40 min) (FIG. 3E).
FIG. 3F is a graph showing the quantification of CFTR aggregation and accumulation at the cell surface under control conditions (Ctr), after treatment with Thapsigargin (Thaps), after treatment with Fenretinide (Fen), and after treatment with Fenretinide and Thapsigargin (Fen+Thaps).
It was next tested whether fenretinide and/or zinc could have an effect on the ability of native CFTR-expressing epithelial cells to transport chloride. CFTR is known to become localized in relatively stable platforms during viral infection (Abu-Arish et al., 2015). The formation of such platforms expressing CFTR was measured following treatment with fenretinide. The Image Correlation Spectroscopy technique was used to measure the degree of aggregation of GFP-wt-CFTR at the plasma membrane of primary human bronchial epithelial cells. The degree of aggregation is proportional to the mean number of CFTR channels per cluster or platform. Confocal images of CFTR at the plasma membrane were collected for analysis under control (Ctr), thapsigargin (Thaps), fenretinide (Fen) or a combination of Fen+Thaps. Cells were pretreated or not with fenretinide at 1.25 μM for 24 h before imaging whereas Thaps (2 μM) exposures were acute (10-20 min).

[1] = system: cytoplasmic phospholipases (cPLA2); test: cPLA2 activity in lung epithelial cells (commercial kit); format: cell-based, human
Protocol: FIG. 1 is a graph showing the effect of fenretinide and Zn^2+ treatment on the activity of cytoplasmic phospholipases (cPLA2). Lung epithelial cells were treated with 1.25 μM fenretinide (Fen) and/or 12.5 μM zinc sulfate (Zn^2+) for 12, 24, 48 or 72 hours and the activity of PLA2 was assessed using a commercially available ELISA kit (Abcam, cat. No. ab133090). All statistical analyses were performed using GraphPad™ software (GraphPad, San Diego, Calif., USA). Statistical significance of differences was evaluated using unpaired t-test with Welch's correction. Data are represented as means±SD (*p 0.05, **p 0.01, ***p 0.001, ****p 0.0001). All experiments were done in triplicates (n=3).
The effect of fenretinide (Fen) and/or zinc (Zn^2+) ions on the lipid metabolism in human airway epithelial cells was assessed the modulation of cytoplasmic phospholipases (cPLA2) activity. cPLA2 activity, as evaluated by colorimetric assay, was decreased following fenretinide treatment in a time dependent fashion, starting 24h after treatment (FIG. 1).

[2] = system: airway epithelial cells overexpressing the delF508 mutated form of CFTR (delF508/delF508); test: DHA and AA fatty acid levels in airway epithelial cells overexpressing delF508 CFTR; format: cell-based, human; settings: 72h, relative to untreated cells; for DHA levels: 1.25 μM fenretinide and/or 12.5 μM zinc sulfate
Protocol: FIGS. 2A-C are graphs showing the effect of fenretinide, Zn^2+ treatment on the level of DHA (FIG. 2A), AA (FIG. 2B) and their ratio (FIG. 2C) in lung epithelial cells overexpressing a mutant form of CFTR (CFTR-delF508) or native CFTR (wt CFTR). Lung epithelial cells grown as 80% confluent monolayer of were treated for 72h with 1.25 μM fenretinide and/or 12.5 μM zinc sulfate. The levels of AA and DHA were assessed as previously described in Guilbault et al. 2008, 2009. All statistical analyses were performed using GraphPad™ software (GraphPad, San Diego, Calif., USA). Statistical significance of differences was evaluated using unpaired t-test with Welch's correction. Data are represented as means±SD (*p≤0.05, **p≤0.01, ***p≤0.001, ****p≤0.0001). All experiments were done in triplicates (n=3).
It was next assessed whether fenretinide and zinc modulate the levels of omega-3 (docosahexaenoic acid, DHA) and omega-6 (arachidonic acid, AA) fatty acids in airway epithelial cells overexpressing the delF508 mutated form of CFTR (delF508/delF508) or native CFTR (wt CFTR). […] For AA levels, all treatments led to a significant decrease in AA levels in delF508 CFTR-expressing cells (relative to untreated cells), but not in native CFTR-expressing cells.

F508del-CFTR = biological target: T1, F508del-CFTR (Homo sapiens, UniProt P13569, DEL508-508); test: Ussing chamber F508del-CFTR conductance across basally permeabilized polarized cells; format: cell-based; settings: 1.25 μM Fen alone for 3 days, 1 μM VX-809 last 24h
T1 construct: host or cells: polarized bronchial epithelial cells
Protocol: FIG. 5 is a graph showing the effect of Zinc and/or Fenretinide treatment on F508del-CFTR function after partial rescue by VX-809 (809) in the absence and presence of 50 μM of the potentiator genistein (acts similarly to VX770). Ussing Chambers were used to measure F508del-CFTR conductance by measuring the short-circuit current across basally permeabilized polarized cells in response to forskolin (FSK) or forskolin+genistein (FSK+Gen). Treatment: Cells were treated basally or not with 1.25 μM fenretinide (Fen) or the combination a combination of 1.25 μM Fenretinide and 12.5 μM Zinc (FenZn) for 3 days. 1 μM VX-809 was added bilaterally during the last 24h. Unpaired student t-test was used for statistical analysis.
FIG. 6 is a graph showing the effect of Zinc and/or Fenretinide treatment on F508del-CFTR mediated secretion in the absence of VX-809. Ussing Chambers were used to measure F508del-CFTR functional expression as short-circuit current across polarized and basally permeabilized bronchial epithelial cells in response to forskolin (FSK) or forskolin+genistein (FSK+Gen). Cells were treated basally or not with 1.25 μM Fenretinide (Fen) and/or 12.5 μM Zinc (Zn) for 3 days. […]

T1 sequence (P13569 with tags, fused parts or gaps DEL508-508): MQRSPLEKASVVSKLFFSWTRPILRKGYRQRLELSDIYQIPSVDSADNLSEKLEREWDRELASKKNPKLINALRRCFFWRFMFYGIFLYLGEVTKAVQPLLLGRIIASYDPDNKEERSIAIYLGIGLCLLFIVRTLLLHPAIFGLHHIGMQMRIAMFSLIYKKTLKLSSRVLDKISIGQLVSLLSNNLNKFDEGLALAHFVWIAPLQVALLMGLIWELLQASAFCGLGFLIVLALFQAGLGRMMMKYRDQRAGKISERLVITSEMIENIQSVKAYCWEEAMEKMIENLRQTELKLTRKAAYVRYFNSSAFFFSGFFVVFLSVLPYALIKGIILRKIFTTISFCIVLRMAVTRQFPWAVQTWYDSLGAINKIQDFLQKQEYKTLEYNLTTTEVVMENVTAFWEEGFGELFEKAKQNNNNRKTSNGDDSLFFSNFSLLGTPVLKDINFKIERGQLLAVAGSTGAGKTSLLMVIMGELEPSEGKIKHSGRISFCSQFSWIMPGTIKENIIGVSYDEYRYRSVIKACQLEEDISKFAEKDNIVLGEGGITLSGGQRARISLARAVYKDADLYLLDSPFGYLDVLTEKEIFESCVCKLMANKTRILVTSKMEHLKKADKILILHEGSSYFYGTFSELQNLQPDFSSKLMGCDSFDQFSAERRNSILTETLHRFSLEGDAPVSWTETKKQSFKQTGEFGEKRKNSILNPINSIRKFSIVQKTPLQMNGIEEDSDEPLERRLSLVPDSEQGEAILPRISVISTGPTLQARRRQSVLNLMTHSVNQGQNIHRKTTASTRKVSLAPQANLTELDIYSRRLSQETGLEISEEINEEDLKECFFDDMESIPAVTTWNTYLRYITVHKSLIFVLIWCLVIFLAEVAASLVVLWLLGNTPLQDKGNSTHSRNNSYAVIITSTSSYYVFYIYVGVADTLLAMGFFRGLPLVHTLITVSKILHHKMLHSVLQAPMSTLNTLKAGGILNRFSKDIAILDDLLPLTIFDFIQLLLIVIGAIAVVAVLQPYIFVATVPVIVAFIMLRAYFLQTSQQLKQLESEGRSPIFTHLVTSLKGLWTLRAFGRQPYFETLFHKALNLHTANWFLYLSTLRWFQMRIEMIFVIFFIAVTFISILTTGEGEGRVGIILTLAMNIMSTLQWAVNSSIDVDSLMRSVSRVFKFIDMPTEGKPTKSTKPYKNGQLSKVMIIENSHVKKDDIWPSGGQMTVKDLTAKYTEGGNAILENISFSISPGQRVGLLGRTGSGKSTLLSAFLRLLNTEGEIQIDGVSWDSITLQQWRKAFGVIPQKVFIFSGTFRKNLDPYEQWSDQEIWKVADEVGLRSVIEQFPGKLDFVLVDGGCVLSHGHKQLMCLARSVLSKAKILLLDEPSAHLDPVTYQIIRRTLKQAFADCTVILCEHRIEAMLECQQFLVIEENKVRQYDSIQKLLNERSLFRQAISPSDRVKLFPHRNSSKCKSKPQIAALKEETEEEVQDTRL

Row | Compound | DHA levels [2] | DHA/AA ratio [2] | CFTR clustering / platforms (degree of aggregation) at the plasma membrane (GFP-wt-CFTR) | further results
1 | CN(C)CCC=C1c2ccccc2CCc2ccccc21 [Amitriptyline] |  |  |  | Induction of CFTR platform formation by fenretinide+thapsigargin (GFP-wt-CFTR; in the presence of Amitriptyline 13 μM for 40 min): inhibited
2 | CC1=C(/C=C/C(C)=C/C=C/C(C)=C/C(=O)Nc2ccc(O)cc2)C(C)(C)CCC1 [fenretinide, all-trans-N-(4-hydroxyphenyl) retinamide] | significant increase | significant increase | did not affect CFTR clustering | cPLA2 activity ([1]; 1.25 μM fenretinide, 12, 24, 48 or 72 hours): decreased; F508del-CFTR channel function (F508del-CFTR): significant increase
3 | C/C=C(/C)C(=O)O[C@H]1C(C)=C2[C@H]([C@@H]1OC(=O)CCCCCCC)[C@@](C)(OC(C)=O)C[C@H](OC(=O)CCC)[C@@]1(O)[C@H]2OC(=O)[C@@]1(C)O [thapsigargin] |  |  | induces some CFTR platforms | 
4 | zinc sulfate | significant increase | significant increase |  | cPLA2 activity ([1]; 12.5 μM zinc sulfate in the absence of fenretinide, 72h): significantly increase; cPLA2 activity, effect of zinc added to fenretinide ([1]; 12.5 μM zinc sulfate with 1.25 μM fenretinide, 24h and 48h): potentiate the effect of fenretinide
